The NIST ThermoML archive (doi:10.1016/j.jct.2016.10.023)

Assay: xn = mol fraction of the nth substance listed
Details: Constant-volume piezometry

CCCCC [pentane] + CCCO
Liquid
Details | mass density [kg/m3]
305.05 K, x1 = 0.8 | 631.08
312.65 K, x1 = 0.8 | 623.57
317.85 K, x1 = 0.5 | 663.63
324.25 K, x1 = 0.8 | 611.04
334.25 K, x1 = 0.8 | 601.01
351.05 K, x1 = 0.5 | 631.49
353.55 K, x1 = 0.8 | 575.9
368.45 K, x1 = 0.5 | 611.87
372.15 K, x1 = 0.8 | 553.38
381.85 K, x1 = 0.2 | 663.76
383.55 K, x1 = 0.5 | 592.03
394.65 K, x1 = 0.8 | 524.7
396.15 K, x1 = 0.2 | 640.78
410.15 K, x1 = 0.8 | 499.43
410.75 K, x1 = 0.5 | 551.97
415.75 K, x1 = 0.2 | 618.67
425.55 K, x1 = 0.8 | 469.31
429.15 K, x1 = 0.2 | 598.54
431.15 K, x1 = 0.5 | 522.22

Details | mass density [kg/m3]
308.15 K, 2402 kPa, Liquid, x1 = 0.8 | 630.94
313.15 K, 157 kPa, Liquid, x1 = 0.8 | 623.55
313.15 K, 6022 kPa, Liquid, x1 = 0.8 | 630.7
314.15 K, 765 kPa, Liquid, x1 = 0.8 | 623.51
318.15 K, 3615 kPa, Liquid, x1 = 0.8 | 623.33
323.15 K, 3447 kPa, Liquid, x1 = 0.5 | 663.38
323.15 K, 7107 kPa, Liquid, x1 = 0.8 | 623.1
323.15 K, 13373 kPa, Liquid, x1 = 0.8 | 630.24
325.15 K, 801 kPa, Liquid, x1 = 0.8 | 611.01
333.15 K, 5935 kPa, Liquid, x1 = 0.8 | 610.66
333.15 K, 9686 kPa, Liquid, x1 = 0.5 | 662.92
333.15 K, 14195 kPa, Liquid, x1 = 0.8 | 622.65
333.15 K, 20785 kPa, Liquid, x1 = 0.8 | 629.77
335.15 K, 769 kPa, Liquid, x1 = 0.8 | 600.98
338.15 K, 2550 kPa, Liquid, x1 = 0.8 | 600.85
343.15 K, 5592 kPa, Liquid, x1 = 0.8 | 600.65
343.15 K, 12414 kPa, Liquid, x1 = 0.8 | 610.23
343.15 K, 16000 kPa, Liquid, x1 = 0.5 | 662.46
343.15 K, 21183 kPa, Liquid, x1 = 0.8 | 622.2
343.15 K, 28234 kPa, Liquid, x1 = 0.8 | 629.31
351.15 K, 441 kPa, Liquid, x1 = 0.5 | 631.49
353.15 K, 1647 kPa, Liquid, x1 = 0.5 | 631.4
353.15 K, 11601 kPa, Liquid, x1 = 0.8 | 600.23
353.15 K, 18747 kPa, Liquid, x1 = 0.8 | 609.8
353.15 K, 22340 kPa, Liquid, x1 = 0.5 | 661.99
353.15 K, 28151 kPa, Liquid, x1 = 0.8 | 621.75
353.15 K, 35636 kPa, Liquid, x1 = 0.8 | 628.84
355.15 K, 1219 kPa, Liquid, x1 = 0.8 | 575.84
358.15 K, 2713 kPa, Liquid, x1 = 0.8 | 575.73
363.15 K, 5237 kPa, Liquid, x1 = 0.8 | 575.54
363.15 K, 7726 kPa, Liquid, x1 = 0.5 | 630.97
363.15 K, 17738 kPa, Liquid, x1 = 0.8 | 599.81
363.15 K, 25314 kPa, Liquid, x1 = 0.8 | 609.37
363.15 K, 28606 kPa, Liquid, x1 = 0.5 | 661.53
363.15 K, 35183 kPa, Liquid, x1 = 0.8 | 621.29
363.15 K, 42979 kPa, Liquid, x1 = 0.8 | 628.38
372.65 K, 854 kPa, Liquid, x1 = 0.8 | 553.36
373.15 K, 1058 kPa, Liquid, x1 = 0.8 | 553.35
373.15 K, 3137 kPa, Liquid, x1 = 0.5 | 611.68
373.15 K, 10414 kPa, Liquid, x1 = 0.8 | 575.16
373.15 K, 13490 kPa, Liquid, x1 = 0.5 | 630.54
373.15 K, 23787 kPa, Liquid, x1 = 0.8 | 599.4
373.15 K, 31687 kPa, Liquid, x1 = 0.8 | 608.94
373.15 K, 34882 kPa, Liquid, x1 = 0.5 | 661.07
373.15 K, 42247 kPa, Liquid, x1 = 0.8 | 620.84
378.15 K, 5874 kPa, Liquid, x1 = 0.5 | 611.47
383.15 K, 1487 kPa, Liquid, x1 = 0.2 | 663.69
383.15 K, 4567 kPa, Liquid, x1 = 0.5 | 602.79
383.15 K, 5590 kPa, Liquid, x1 = 0.8 | 552.99
383.15 K, 8687 kPa, Liquid, x1 = 0.5 | 611.26
383.15 K, 15678 kPa, Liquid, x1 = 0.8 | 574.78
383.15 K, 19194 kPa, Liquid, x1 = 0.5 | 630.11
383.15 K, 29885 kPa, Liquid, x1 = 0.8 | 598.99
383.15 K, 38107 kPa, Liquid, x1 = 0.8 | 608.51
384.15 K, 1047 kPa, Liquid, x1 = 0.5 | 592.01
393.15 K, 941 kPa, Liquid, x1 = 0.5 | 579.06
393.15 K, 5707 kPa, Liquid, x1 = 0.5 | 591.66
393.15 K, 8491 kPa, Liquid, x1 = 0.2 | 663.21
393.15 K, 10012 kPa, Liquid, x1 = 0.5 | 602.39
393.15 K, 10151 kPa, Liquid, x1 = 0.8 | 552.64
393.15 K, 14096 kPa, Liquid, x1 = 0.5 | 610.86
393.15 K, 20747 kPa, Liquid, x1 = 0.8 | 574.4
393.15 K, 25038 kPa, Liquid, x1 = 0.5 | 629.68
393.15 K, 36012 kPa, Liquid, x1 = 0.8 | 598.57
393.15 K, 44637 kPa, Liquid, x1 = 0.8 | 608.08
395.15 K, 1157 kPa, Liquid, x1 = 0.8 | 524.69
398.15 K, 2324 kPa, Liquid, x1 = 0.8 | 524.59
403.15 K, 905 kPa, Gas, x1 = 0.8 | 22.65
403.15 K, 4215 kPa, Liquid, x1 = 0.8 | 524.43
403.15 K, 4306 kPa, Liquid, x1 = 0.2 | 640.49
403.15 K, 5622 kPa, Liquid, x1 = 0.5 | 578.69
403.15 K, 10647 kPa, Liquid, x1 = 0.5 | 591.27
403.15 K, 14687 kPa, Liquid, x1 = 0.8 | 552.29
403.15 K, 15313 kPa, Liquid, x1 = 0.2 | 662.74
403.15 K, 15471 kPa, Liquid, x1 = 0.5 | 601.98
403.15 K, 19586 kPa, Liquid, x1 = 0.5 | 610.45
403.15 K, 25962 kPa, Liquid, x1 = 0.8 | 574.02
403.15 K, 30841 kPa, Liquid, x1 = 0.5 | 629.25
403.15 K, 42147 kPa, Liquid, x1 = 0.8 | 598.16
413.15 K, 944 kPa, Gas, x1 = 0.8 | 22.64
413.15 K, 2137 kPa, Liquid, x1 = 0.5 | 551.89
413.15 K, 2268 kPa, Liquid, x1 = 0.8 | 499.34
413.15 K, 7884 kPa, Liquid, x1 = 0.8 | 524.12
413.15 K, 10313 kPa, Liquid, x1 = 0.5 | 578.32
413.15 K, 10612 kPa, Liquid, x1 = 0.2 | 640.04
413.15 K, 15843 kPa, Liquid, x1 = 0.5 | 590.88
413.15 K, 19245 kPa, Liquid, x1 = 0.8 | 551.94
413.15 K, 21025 kPa, Liquid, x1 = 0.5 | 601.58
413.15 K, 22059 kPa, Liquid, x1 = 0.2 | 662.26
413.15 K, 24988 kPa, Liquid, x1 = 0.5 | 610.04
413.15 K, 31136 kPa, Liquid, x1 = 0.8 | 573.65
413.15 K, 36585 kPa, Liquid, x1 = 0.5 | 628.82
414.15 K, 712 kPa, Gas, x1 = 0.5 | 15.6
415.15 K, 715 kPa, Gas, x1 = 0.5 | 15.6
416.15 K, 1229 kPa, Liquid, x1 = 0.2 | 618.66
416.15 K, 1374 kPa, Gas, x1 = 0.8 | 36.88
423.15 K, 737 kPa, Gas, x1 = 0.5 | 15.59
423.15 K, 982 kPa, Gas, x1 = 0.8 | 22.63
423.15 K, 1418 kPa, Gas, x1 = 0.8 | 36.86
423.15 K, 4884 kPa, Liquid, x1 = 0.2 | 618.37
423.15 K, 5404 kPa, Liquid, x1 = 0.8 | 499.05
423.15 K, 5815 kPa, Liquid, x1 = 0.5 | 551.55
423.15 K, 11608 kPa, Liquid, x1 = 0.8 | 523.8
423.15 K, 14921 kPa, Liquid, x1 = 0.5 | 577.95
423.15 K, 16915 kPa, Liquid, x1 = 0.2 | 639.59
423.15 K, 20842 kPa, Liquid, x1 = 0.5 | 590.5
423.15 K, 23598 kPa, Liquid, x1 = 0.8 | 551.59
423.15 K, 26392 kPa, Liquid, x1 = 0.5 | 601.18
423.15 K, 28950 kPa, Liquid, x1 = 0.2 | 661.79
423.15 K, 30447 kPa, Liquid, x1 = 0.5 | 609.63
423.15 K, 36411 kPa, Liquid, x1 = 0.8 | 573.27
426.15 K, 1900 kPa, Liquid, x1 = 0.8 | 469.29
432.15 K, 2018 kPa, Liquid, x1 = 0.5 | 522.19
433.15 K, 760 kPa, Gas, x1 = 0.5 | 15.59
433.15 K, 1023 kPa, Gas, x1 = 0.8 | 22.62
433.15 K, 1472 kPa, Gas, x1 = 0.8 | 36.85
433.15 K, 2403 kPa, Liquid, x1 = 0.5 | 522.16
433.15 K, 3158 kPa, Liquid, x1 = 0.2 | 598.39
433.15 K, 3619 kPa, Liquid, x1 = 0.8 | 469.11
433.15 K, 8493 kPa, Liquid, x1 = 0.8 | 498.76
433.15 K, 9460 kPa, Liquid, x1 = 0.5 | 551.22
433.15 K, 10196 kPa, Liquid, x1 = 0.2 | 617.96
433.15 K, 15352 kPa, Liquid, x1 = 0.8 | 523.48
433.15 K, 19645 kPa, Liquid, x1 = 0.5 | 577.58
433.15 K, 23135 kPa, Liquid, x1 = 0.2 | 639.15
433.15 K, 26095 kPa, Liquid, x1 = 0.5 | 590.11
433.15 K, 28096 kPa, Liquid, x1 = 0.8 | 551.24
433.15 K, 31893 kPa, Liquid, x1 = 0.5 | 600.78
